Molecules are shown by their SMILES. Like-named read-outs stand apart in the source and are kept apart here.

Data set [1] in a line: log P determination by HPLC (EEC Directive 79/831 Annex V.A8, gradient method). The data set is classed as physicochemical. As to conditions: for chromatographic logP: HPLC, gradient method, acetonitrile/0.1% strength aqueous phosphoric acid or formic acid.
Data set [2] deals with caterpillars of the army worm (Spodoptera frugiperda). Briefly: Spodoptera frugiperda test, SPODFR spray treatment. Format: in vivo. As to conditions: foliar, 168 h, 500 g a. i./ha, spray treatment of maize leaf discs, 7 d, read-out: % 7 d (effect in %, caterpillars killed). On the procedure:
[table] To produce a suitable preparation of active compound, 1 part by weight of active compound is mixed with the stated amounts of solvents and emulsifier, and the concentrate is diluted with emulsifier-containing water to the desired concentration. Discs of maize leaves (Zea mays) are sprayed with a preparation of active compound of the desired concentration and, after drying, populated with caterpillars of the army worm (Spodoptera frugiperda). After the desired period of time, the effect in % is determined. 100% means that all caterpillars have been killed; 0% means that none of the caterpillars have been killed.

Consider `CCCC(C)NC(=O)/C=C/c1c(-c2ccc(F)cc2Cl)nc2sc(C(F)(F)F)nn12` (centres unmarked) [Example 0591], for which, in data set [1] (read-out: Physical data: log P), the chromatographic logP is 4.02. In addition, the pest or weed control at 500 g/ha in data set [2] came out at 100%.
On to `CC(NC(=O)/C=C/c1c(-c2ccccc2Cl)nc2sc(C(F)(F)Cl)nn12)C(F)(F)F` (centres unmarked) [Example 0741], for which the chromatographic logP in data set [1] (read-out: Physical data: logP) stood at 3.8. Moreover, in data set [2], the pest or weed control at 500 g/ha came out at 100%.
Regarding `C[C@@H](NC(=O)/C=C/c1c(-c2ccc(F)cc2Cl)nc2sc(C(F)(F)F)nn12)C(F)(F)F` [Example 0608], in data set [1] (read-out: Physical data: log P), the chromatographic logP was 3.77. Besides, in data set [2], the pest or weed control at 500 g/ha stood at 100%.
For `O=C(/C=C/c1c(-c2ccc(Cl)cc2Cl)nc2sc(C(F)(F)F)nn12)Nc1ccc(F)cc1` [Example 0553], in data set [1] (read-out: Physical data: log P), the chromatographic logP amounted to 4.63. Further, the pest or weed control at 500 g/ha in data set [2] stood at 100%.
For the compound `CC(C)(C)NC(=O)/C=C/c1c(-c2ccc(F)cc2Cl)nc2sc(C(F)(F)F)nn12` [Example 0583], the chromatographic logP in data set [1] (read-out: Physical data: log P) is 3.89. Moreover, in data set [2], the pest or weed control at 500 g/ha worked out at 100%.
Regarding `CCC(CC)NC(=O)/C=C/c1c(-c2ccccc2Cl)nc2sc(C(F)(F)F)nn12` [Example 0215], the chromatographic logP in data set [1] (read-out: Physical data (logP)) is 3.72. Besides, in data set [2], the pest or weed control at 500 g/ha came out at 100%.
`CCCC(C)NC(=O)/C=C/c1c(-c2ccccc2Cl)nc2sc(C(F)(F)F)nn12` (centres unmarked) [Example 0168]: in data set [1] (read-out: Physical data (logP)), the chromatographic logP came out at 3.85. In addition, the pest or weed control at 500 g/ha in data set [2] was 100%.
Take `CCC(CC)NC(=O)/C=C/c1c(-c2ccccc2Cl)nc2sc(C(F)(F)Cl)nn12` [Example 0781]: the chromatographic logP in data set [1] (read-out: Physical data: logP) is 3.95. Also, the pest or weed control at 500 g/ha in data set [2] came out at 100%.
As for `O=C(/C=C/c1c(-c2ccccc2Cl)nc2sc(C(F)(F)F)nn12)N1CCOCC1` [Example 0223], the chromatographic logP in data set [1] (read-out: Physical data: log P) came out at 2.79. Moreover, the pest or weed control at 500 g/ha in data set [2] stood at 100%.
On to `CC(NC(=O)/C=C/c1c(-c2cccc(Cl)c2)nc2sc(C(F)(F)F)nn12)C(F)(F)F` (centres unmarked) [Example 0094], for which the pest or weed control at 500 g/ha in data set [2] amounted to 100%.
Regarding `O=C(/C=C/c1c(-c2ccc(F)cc2Cl)nc2sc(C(F)(F)F)nn12)NCc1ccc(F)cc1` [Example 0614], in data set [2], the pest or weed control at 500 g/ha came to 100%.
In the case of `CC(COc1ccccc1)NC(=O)/C=C/c1c(-c2ccccc2Cl)nc2sc(C(F)(F)F)nn12` (racemic) [Example 0194], the “Physical data (logP)” value in data set [1] came out at 4.03.
On to `CC(NC(=O)/C=C/c1c(-c2ccc(Cl)cc2Cl)nc2sc(C(F)(F)F)nn12)c1ccccn1` (centres unmarked) [Example 0555], for which the “Physical data: log P” value in data set [1] is 2.84.
For `CC(C)CNC(=O)/C=C/c1c(-c2ccccc2Cl)nc2sc(-c3ccc(C(F)(F)F)cc3)nn12` [Example 0838], the “Physical data: logP” value in data set [1] is 4.37.
In the case of `COCc1nn2c(/C=C/C(=O)NCC(F)(F)C(F)(F)C(F)(F)F)c(-c3ccccc3Cl)nc2s1` [Example 0837], the “Physical data: logP” value in data set [1] was found to be 3.59.
As to `CC(COc1ccccc1)NC(=O)/C=C/c1c(-c2ccc(F)cc2)nc2sc(C(F)(F)F)nn12` (centres unmarked) [Example 0336], the “Physical data: log P” value in data set [1] was found to be 4.13.
Take `CCC(C)NC(=O)/C=C/c1c(-c2ccc(Cl)cc2)nc2sc(C(F)(F)F)nn12` (centres unmarked) [Example 0016]: the “Physical data (logP)” value in data set [1] was found to be 3.94.
As to `CN(C)C(=O)/C=C/c1c(-c2cccc(C(F)(F)F)c2)nc2sc(C(F)(F)F)nn12` [Example 0429], the “Physical data: log P” value in data set [1] is on record as 3.68.
As for `Cc1cn2c(/C=C/C(=O)NCC(C)C)c(-c3ccccc3Cl)nc2s1` [Example 0860], in data set [1], the “Physical data: logP” value is 2.64.
As for `Cc1cn2c(/C=C/C(=O)NC3CC3)c(-c3ccccc3Cl)nc2s1` [Example 0873], in data set [1], the “Physical data: logP” value is recorded as 2.02.
`O=C(/C=C/c1c(-c2cccc(C(F)(F)F)c2)nc2sc(C(F)(F)F)nn12)N1CCCCC1` [Example 0435]: the “Physical data: log P” value in data set [1] was 4.51.
As to `Cc1csc2nc(-c3ccccc3Cl)c(/C=C/C(=O)NC3CCC(C(F)(F)F)CC3)n12` (centres unmarked) [Example 0887], in data set [1], the “Physical data: logP” value amounted to 3.04.
For `CC(NC(=O)/C=C/c1c(-c2ccccc2Cl)nc2sc(C(F)(F)F)nn12)c1ccccc1` (racemic) [Example 0189], the “Physical data (logP)” value in data set [1] is on record as 3.81.

Source of the values: US20090118286A1, “Heterobicyclic Acrylamides” (Bayer Cropscience AG, priority 2005, published 2009).
